Series [1] concerns disseminated L1210 murine leukemia. In words: Antileukemic activity against disseminated L1210 murine leukemia. The class given is in vivo. To be noted: for ILS % (increase in life span): L1210 10^5 cells/mouse IV day 0; for ILS % (increase in life span) / Tox (number of toxic deaths/number of mice): PNU 166196 0.26 mg/kg/day iv days +1,2, combination same doses and schedule; for Toxicity (in words): single agents: cisplatin 5.9 mg/kg day +3, carboplatin 135 mg/kg day +3, PNU 166196 0.26 mg/kg days +1,2.

For series [2], the system named is human colon carcinoma HCT-116 (low/medium GST and MMR deficiency). In words: Antitumor activity against subcutaneous implanted HCT-116 human colon carcinoma. Type of series: in vivo. To be noted: for Log cell Kill total / WL % day of nadir / WL % / Tumor free/total mice: IV q7dx3; for Log cell Kill total / WL % day of nadir / WL % / T/C % (tumor regression) / Tumor free/total mice: PNU 166196 0.4 mg/kg, cisplatin 2 mg/kg; for WL %: at nadir; for T/C % (tumor regression): day 20 after treatment, IV q7dx3 from day 7 after implant, PNU 166196 48 hours after cisplatin, NCI: T/C ≦ 42 active; for Tumor free/total mice: on day 40 after tumor implant.

The mark [3] stands for this setting: Table 1, cisplatin 5.9 mg/kg iv day +3.
Setting [4] is: Table 2, carboplatin 135 mg/kg iv day +3.

As for `C=C(Br)C(=O)Nc1cc(C(=O)Nc2cc(C(=O)Nc3cc(C(=O)Nc4cc(C(=O)NCCNC(=N)N)n(C)c4)n(C)c3)n(C)c2)n(C)c1.Cl` [PNU 166196, N-(5-{[(5-{[(5-{[(2-{[amino(imino)methyl]amino}ethyl)amino]carbonyl}-1-methyl-1H-pyrrol-3-yl)amino]carbonyl}-1-methyl-1H-pyrrol-3-yl)amino]carbonyl}-1-methyl-1H-pyrrol-3-yl)-4-[(2-bromoacryloyl)amino]-1-methyl-1H-pyrrole-2-carboxamide hydrochloride], in series [1] (setting [3]), the “ILS % (increase in life span)” value is on record as 33% and the “Tox (number of toxic deaths/number of mice)” value is 0/10. In series [1] (setting [4]), the “ILS % (increase in life span)” value was determined as 33% and the “Tox (number of toxic deaths/number of mice)” value is listed as 0/10. Besides, the “Toxicity (in words)” value in series [1] was “without toxicity”. Moreover, in series [2], the “Log cell Kill total” value is 0.15, the “WL % day of nadir” value stood at 29 days, the WL % is on record as 12% and the “T/C % (tumor regression)” value is reported as 61%. Besides, the Tumor free/total mice in series [2] was 0/8. In addition, in series [2] (single agents: cisplatin 2 mg/kg q7dx3, PNU 166196 0.4 mg/kg q7dx3), the “Toxicity (in words)” value is given as “without toxicity”.

`N.N.O=C([O-])C1(C(=O)[O-])CCC1.[Pt+2]` [Carboplatin, carboplatin, reference compound]: in series [1] (setting [4]), the “ILS % (increase in life span)” value is 50% and the “Tox (number of toxic deaths/number of mice)” value is 0/10. In addition, in series [1], the “Toxicity (in words)” value was “without toxicity”.

With `N.N.[Cl][Pt][Cl]` [Cisplatin, cisplatin, reference compound], the “ILS % (increase in life span)” value in series [1] (setting [3]) stood at 67%. For the same compound, in series [2], the “Log cell Kill total” value came to 0, the “WL % day of nadir” value was found to be 24 days, the WL % worked out at 12% and the “T/C % (tumor regression)” value is listed as 92%. In addition, the Tumor free/total mice in series [2] is recorded as 0/7.

The record behind these values is patent publication US8642580B2, “Combined therapy against tumors comprising substituted acryloyl distamycin derivatives and platinum derivatives” (priority 2000, dated 2014).
